Assay results from PubChem BioAssay (NCI).
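96-well plates; 48 h exposure; 5 concentrations. Endpoints by linear interpolation between flanking doses. Not reached: highest tested concentration assigned. GI50 marks 50% less growth. TGI is the concentration that stops growth completely.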

Columns and labels:
Assay in all cases: NCI tumour cell line growth inhibition, 48 h; in the data active = GI50 below about 0.43 µM; inactive = the rest
[1] = test system: SF-295 CNS
[2] = test system: HCT-116 colon
[3] = test system: MCF7 breast
[4] = test system: NCI/ADR-RES ovarian
[5] = test system: BT-549 breast
[6] = test system: OVCAR-4 ovarian
[7] = test system: UACC-62 melanoma
[8] = test system: MDA-MB-435
[9] = test system: SR leukemia
[10] = test system: SK-MEL-28 melanoma
[11] = test system: A549 NSCLC
[12] = test system: LOX IMVI melanoma
[13] = test system: SW-620 colon
[14] = test system: SN12C renal
[15] = test system: RXF 393 renal
[16] = test system: SF-539 CNS
[17] = test system: NCI-H226 lung
[18] = test system: IGROV1 ovarian
[19] = test system: HL-60(TB) leukemia
[20] = test system: MDA-MB-231 breast
[21] = test system: SNB-75 CNS
[22] = test system: MALME-3M melanoma
[23] = test system: HOP-92 NSCLC
[24] = test system: UO-31 renal
[25] = test system: SK-MEL-5 melanoma
[26] = test system: PC-3 prostate
[27] = test system: HCC-2998 colon
[28] = test system: HOP-62 NSCLC
[29] = test system: OVCAR-8 ovarian
[30] = test system: MOLT-4 leukemia
[31] = test system: SK-OV-3 ovarian
[32] = test system: SK-MEL-2 melanoma
[33] = test system: HS 578T breast
[34] = test system: SF-268 CNS
[35] = test system: NCI-H522 lung
[36] = test system: OVCAR-5 ovarian
[37] = test system: OVCAR-3 ovarian
[38] = test system: KM12 colon
[39] = test system: DU-145 prostate
[40] = test system: CCRF-CEM leukemia
[41] = test system: HT29 colon
[42] = test system: A498 renal
[43] = test system: HCT-15 colon
[44] = test system: M14 melanoma
[45] = test system: 786-0 renal
[46] = test system: TK-10 renal
[47] = test system: ACHN renal
[48] = test system: COLO 205 colon
[49] = test system: T-47D breast
[50] = test system: NCI-H23 lung
[51] = test system: SNB-19 CNS
[52] = test system: NCI-H460 lung
[53] = test system: CAKI-1 renal
[54] = test system: K-562 leukemia
[55] = test system: RPMI-8226 leukemia
[56] = test system: U251 CNS
[57] = test system: UACC-257 melanoma
[58] = test system: EKVX NSCLC

CCOc1ccc(C(=O)Nc2ncc(Cc3ccc(F)cc3)s2)cc1
> 52300 nM: TGI [29]
> 75900 nM: TGI [46]
> 66500 nM: TGI [24]
> 100000 nM: TGI [2] | TGI [3] | TGI [4] | TGI [5] | TGI [6] | TGI [7] | TGI [9] | TGI [10] | TGI [11] | TGI [12] | TGI [13] | TGI [14] | TGI [18] | TGI [22] | TGI [25] | TGI [26] | TGI [27] | TGI [30] | TGI [36] | TGI [38] | TGI [39] | TGI [43] | TGI [44] | TGI [47] | TGI [49] | TGI [50] | TGI [51] | TGI [52] | TGI [54] | TGI [55] | TGI [57] | TGI [58]
inactive: GI50 [5] 1730 nM | GI50 [6] 1630 nM | GI50 [10] 1230 nM | GI50 [22] 1130 nM | GI50 [23] 8750 nM | GI50 [34] 4610 nM | GI50 [42] > 34000 nM | GI50 [46] 29300 nM | GI50 [47] 455 nM | GI50 [50] 466 nM
2750 nM: TGI [16]
> 52700 nM: TGI [40]
3440 nM: TGI [21]
> 39300 nM: TGI [33]
> 64900 nM: TGI [31]
> 62600 nM: TGI [56]
> 33000 nM: TGI [1]
7630 nM: TGI [17]
> 44200 nM: TGI [53]
672 nM: TGI [15]
> 91900 nM: TGI [34]
4680 nM: TGI [19]
> 90500 nM: TGI [42]
> 54500 nM: TGI [45]
active: GI50 [1] 144 nM | GI50 [2] 93 nM | GI50 [3] 53.7 nM | GI50 [4] 117 nM | GI50 [7] 107 nM | GI50 [8] 22.1 nM | GI50 [9] 34.4 nM | GI50 [11] 257 nM | GI50 [12] 145 nM | GI50 [13] 77.8 nM | GI50 [14] 345 nM | GI50 [15] 151 nM | GI50 [16] 161 nM | GI50 [17] 319 nM | GI50 [18] 409 nM | GI50 [19] 52 nM | GI50 [20] 371 nM | GI50 [21] 69.3 nM | GI50 [24] 350 nM | GI50 [25] 322 nM | GI50 [26] 169 nM | GI50 [27] 213 nM | GI50 [28] 309 nM | GI50 [29] 376 nM | GI50 [30] 151 nM | GI50 [31] 289 nM | GI50 [32] 117 nM | GI50 [33] 399 nM | GI50 [35] 78.1 nM | GI50 [36] 387 nM | GI50 [37] 162 nM | GI50 [38] 83.6 nM | GI50 [39] 387 nM | GI50 [40] 108 nM | GI50 [41] 77.1 nM | GI50 [43] 49.4 nM | GI50 [44] 94.1 nM | GI50 [45] 340 nM | GI50 [48] 164 nM | GI50 [49] 248 nM | GI50 [51] 402 nM | GI50 [52] 113 nM | GI50 [53] 74.9 nM | GI50 [54] 44.3 nM | GI50 [55] 157 nM | GI50 [56] 230 nM | GI50 [58] 347 nM
375 nM: TGI [35]
> 50000 nM: TGI [28]
55.1 nM: TGI [8]
> 86100 nM: TGI [20] | TGI [23]
> 22200 nM: TGI [37]
